According to patent publication US20070082880A1 (priority 2005, published 2007):

How the values were obtained:
[1] = molecular target: T1, human PKCθ full length enzyme (Homo sapiens, UniProt Q04759); experiment: PKCθ IMAP Assay; type: biochemical; details: average value when one or more samples were tested; ATP 6 uM, PKCθ 1 nM
T1 construct: human PKCθ full length enzyme (Panvera Catalog No. P2996); purchased Panvera P2996
How it was run: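 IMAP fluorescence polarization after 20 min with binding beads measured phosphorylation of 100 nM 5FAM-peptide. Reactions held 1 nM full-length human PKCθ, 6 uM ATP, 5% DMSO and DTT-containing buffer, 25 min at room temperature. Compounds tested as 2:1 serial dilutions; controls lacked ATP or enzyme.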

T1 sequence (Q04759 whole entry): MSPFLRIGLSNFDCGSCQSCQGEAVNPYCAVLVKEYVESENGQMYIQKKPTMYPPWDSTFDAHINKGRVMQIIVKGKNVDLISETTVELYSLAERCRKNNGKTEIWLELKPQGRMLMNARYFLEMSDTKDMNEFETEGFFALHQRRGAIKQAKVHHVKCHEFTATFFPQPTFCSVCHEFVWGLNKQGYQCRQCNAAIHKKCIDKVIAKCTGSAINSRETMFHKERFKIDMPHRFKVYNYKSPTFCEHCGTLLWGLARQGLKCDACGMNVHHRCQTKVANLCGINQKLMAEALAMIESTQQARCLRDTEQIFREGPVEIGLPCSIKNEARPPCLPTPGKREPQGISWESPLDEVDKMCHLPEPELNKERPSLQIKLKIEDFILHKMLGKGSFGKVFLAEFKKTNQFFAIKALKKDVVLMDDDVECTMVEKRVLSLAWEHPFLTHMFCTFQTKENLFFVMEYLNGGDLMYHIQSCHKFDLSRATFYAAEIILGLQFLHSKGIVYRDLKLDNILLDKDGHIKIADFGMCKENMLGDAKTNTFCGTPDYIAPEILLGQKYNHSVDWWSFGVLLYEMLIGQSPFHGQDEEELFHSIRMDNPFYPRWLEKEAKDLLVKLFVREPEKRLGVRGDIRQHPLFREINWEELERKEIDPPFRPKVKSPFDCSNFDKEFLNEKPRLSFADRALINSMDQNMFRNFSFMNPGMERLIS

| SMILES | IC50 [1] | melting point |
| --- | --- | --- |
| Cc1c(Nc2c(C#N)cnc3sc(C(=O)N4CCCC4)cc23)ccc2[nH]ccc12 [Compound 249, 4-[(4-methyl-1H-indol-5-yl)amino]-2-(pyrrolidin-1-ylcarbonyl)thieno[2,3-b]pyridine-5-carbonitrile] | 48 nM | 256 °C |
| Cc1c(Nc2c(C#N)cnc3sc(/C=C/C(=O)O)c(C)c23)ccc2[nH]ccc12 [Compound 287, (2E)-3-{5-Cyano-3-methyl-4-[(4-methyl-1H-indol-5-yl)amino]thieno[2,3-b]pyridin-2-yl}acrylic acid] | 47 nM | 329 °C |
| Cc1c(Nc2c(C#N)cnc3sc(C#Cc4cc(CN(C)C)ccn4)cc23)ccc2[nH]ccc12 [Compound 444, 2-({4-[(dimethylamino)methyl]pyridin-2-yl}ethynyl)-4-[(4-methyl-1H-indol-5-yl)amino]thieno[2,3-b]pyridine-5-carbonitrile] | 176 nM | > 250 °C |
| Cc1c(Nc2c(C#N)cnc3sc(C#Cc4ccc(N(C)C)nc4)cc23)ccc2[nH]ccc12 [Compound 445, 2-{[6-(dimethylamino)pyridin-3-yl]ethynyl}-4-[(4-methyl-1H-indol-5-yl)amino]thieno[2,3-b]pyridine-5-carbonitrile] | 550 nM | > 260 °C |
| Cc1c(Nc2c(C#N)cnc3sc(C#Cc4coc(CN5CCN(C)CC5)c4)cc23)ccc2[nH]ccc12 [Compound 447, 4-[(4-methyl-1H-indol-5-yl)amino]-2-({5-[(4-methylpiperazin-1-yl)methyl]-3-furyl}ethynyl)thieno[2,3-b]pyridine-5-carbonitrile] | 171 nM | 216 to 218 °C |
| Cc1c(Nc2c(C#N)cnc3sc(C#Cc4ccc(CN(C)C)s4)cc23)ccc2[nH]ccc12 [Compound 448, 2-({5-[(dimethylamino)methyl]-2-thienyl}ethynyl)-4-[(4-methyl-1H-indol-5-yl)amino]thieno[2,3-b]pyridine-5-carbonitrile] | 83 nM | 185 to 187 °C |
| Cc1c(Nc2c(C#N)cnc3sc(C#Cc4ccc(CN(C)C)o4)cc23)ccc2[nH]ccc12 [Compound 449, 2-({5-[(dimethylamino)methyl]-2-furyl}ethynyl)-4-[(4-methyl-1H-indol-5-yl)amino]thieno[2,3-b]pyridine-5-carbonitrile] | 25 nM | 218 to 220 °C |
| Cc1c(Nc2c(C#N)cnc3sc(C#Cc4cncc(C(=O)N(C)C)c4)cc23)ccc2[nH]ccc12 [Compound 451, 5-({5-cyano-4-[(4-methyl-1H-indol-5-yl)amino]thieno[2,3-b]pyridin-2-yl}ethynyl)-N,N-dimethylnicotinamide] | 24 nM | > 260 °C |
| Cc1c(Nc2c(C#N)cnc3sc(C#Cc4cncc(CN(C)C)c4)cc23)ccc2[nH]ccc12 [Compound 452, 2-({5-[(dimethylamino)methyl]pyridin-3-yl}ethynyl)-4-[(4-methyl-1H-indol-5-yl)amino]thieno[2,3-b]pyridine-5-carbonitrile] | 18 nM | 130 °C (dec.) |
| Cc1c(Nc2c(C#N)cnc3sc(C#Cc4ccc(CN(C)C)nc4)cc23)ccc2[nH]ccc12 [Compound 453, 2-({6-[(dimethylamino)methyl]pyridin-3-yl}ethynyl)-4-[(4-methyl-1H-indol-5-yl)amino]thieno[2,3-b]pyridine-5-carbonitrile] | 60 nM | 230 to 232 °C |
| Cc1c(Nc2c(C#N)cnc3sc(C4=CCN(S(C)(=O)=O)CC4)cc23)ccc2[nH]ccc12 [Compound 475, 4-[(4-methyl-1H-indol-5-yl)amino]-2-[1-(methylsulfonyl)-1,2,3,6-tetrahydropyridin-4-yl]thieno[2,3-b]pyridine-5-carbonitrile] | 31 nM | 228 °C |
| Cc1c(Nc2c(C#N)cnc3sc(C4=CCN(C)CC4)cc23)ccc2[nH]ccc12 [Compound 477, 4-[(4-Methyl-1H-indol-5-yl)amino]-2-(1-methyl-1,2,3,6-tetrahydropyridin-4-yl)thieno[2,3-b]pyridine-5-carbonitrile] | 41 nM | 230 °C |
| Cc1c(Nc2c(C#N)cnc3scc(C)c23)ccc2[nH]ccc12 [Compound 481, 3-Methyl-4-[(4-methyl-1H-indol-5-yl)amino]thieno[2,3-b]pyridine-5-carbonitrile] | 46 nM | 261 °C |
| Cc1c(Nc2c(C#N)cnc3sc(-c4ccc(OCCN(C)C)cc4)cc23)ccc2[nH]ccc12 [Compound 494, 2-{4-[2-(dimethylamino)ethoxy]phenyl}-4-[(4-methyl-1H-indol-5-yl)amino]thieno[2,3-b]pyridine-5-carbonitrile] | 23 nM | 182 to 184 °C |

Further lines, results first:

| IC50 [1] | melting point | SMILES |
| --- | --- | --- |
| 170 nM | 195 to 197 °C | CN1CCN(CCC#Cc2cc3c(Nc4ccc5[nH]ccc5c4)c(C#N)cnc3s2)CC1 [Compound 221, 4-(1H-indol-5-ylamino)-2-[4-(4-methylpiperazin-1-yl)but-1-yn-1-yl]thieno[2,3-b]pyridine-5-carbonitrile] |
| 68 nM | 255 °C | COC(=O)c1cc2c(Nc3ccc4[nH]ccc4c3C)c(C#N)cnc2s1 [Compound 245, methyl 5-cyano-4-[(4-methyl-1H-indol-5-yl)amino]thieno[2,3-b]pyridine-2-carboxylate] |
| 219 nM | 287 °C | Cc1c(Nc2c(C#N)cnc3sc(C(=O)O)cc23)ccc2[nH]ccc12 [Compound 247, 5-cyano-4-[(4-methyl-1H-indol-5-yl)amino]thieno[2,3-b]pyridine-2-carboxylic acid] |
| 2050 nM | > 250 °C | N#Cc1cnc2sc(C(=O)O)cc2c1Nc1ccc2[nH]ccc2c1 [Compound 248, 5-cyano-4-(1H-indol-5-ylamino)thieno[2,3-b]pyridine-2-carboxylic acid] |
| 3210 nM | 212 to 215 °C | N#Cc1cnc2sc(CN3CCCC3)cc2c1Nc1ccc2[nH]ccc2c1 [Compound 267, 4-(1H-indol-5-ylamino)-2-(pyrrolidin-1-ylmethyl)thieno[2,3-b]pyridine-5-carbonitrile] |
| 1160 nM | 210 °C | CCCCc1cc2c(Nc3ccc4[nH]ccc4c3)c(C#N)cnc2s1 [Compound 271, 2-butyl-4-(1H-indol-5-ylamino)thieno[2,3-b]pyridine-5-carbonitrile] |
| 447 nM | 220 °C | CN1CCN(CC/C=C/c2cc3c(Nc4ccc5[nH]ccc5c4)c(C#N)cnc3s2)CC1 [Compound 273, 4-(1H-indol-5-ylamino)-2-[(1E)-4-(4-methylpiperazin-1-yl)but-1-en-1-yl]thieno[2,3-b]pyridine-5-carbonitrile] |
| 983 nM | 120 °C (dec.) | CN1CCN(CCCCc2cc3c(Nc4ccc5[nH]ccc5c4)c(C#N)cnc3s2)CC1 [Compound 274, 4-(1H-indol-5-ylamino)-2-[4-(4-methylpiperazin-1-yl)butyl]thieno[2,3-b]pyridine-5-carbonitrile] |
| 605 nM | 226 °C | CCOC(=O)/C=C/c1cc2c(Nc3ccc4[nH]ccc4c3)c(C#N)cnc2s1 [Compound 280, ethyl (2E)-3-[5-cyano-4-(1H-indol-5-ylamino)thieno[2,3-b]pyridin-2-yl]acrylate] |
| 1960 nM | 230 °C (dec.) | N#Cc1cnc2sc(/C=C/C(=O)O)cc2c1Nc1ccc2[nH]ccc2c1 [Compound 281, (2E)-3-[5-cyano-4-(1H-indol-5-ylamino)thieno[2,3-b]pyridin-2-yl]acrylic acid] |
| 21 nM | > 350 °C | Cc1c(Nc2c(C#N)cnc3sc(/C=C/C(=O)O)cc23)ccc2[nH]ccc12 [Compound 283, (2E)-3-{5-cyano-4-[(4-methyl-1H-indol-5-yl)amino]thieno[2,3-b]pyridin-2-yl}acrylic acid] |
| 657 nM | 202 °C | CCOC(=O)CCc1cc2c(Nc3ccc4[nH]ccc4c3)c(C#N)cnc2s1 [Compound 284, ethyl 3-[5-cyano-4-(1H-indol-5-ylamino)thieno[2,3-b]pyridin-2-yl]propanoate] |
| 5020 nM | 255 °C | N#Cc1cnc2sc(CCC(=O)O)cc2c1Nc1ccc2[nH]ccc2c1 [Compound 285, 3-[5-cyano-4-(1H-indol-5-ylamino)thieno[2,3-b]pyridin-2-yl]propanoic acid] |
| 251 nM | 175 °C | Cc1c(Nc2c(C#N)cnc3sc(CCC(=O)N4CCCC4)cc23)ccc2[nH]ccc12 [Compound 315, 4-[(4-methyl-1H-indol-5-yl)amino]-2-(3-oxo-3-pyrrolidin-1-ylpropyl)thieno[2,3-b]pyridine-5-carbonitrile] |
| 1690 nM | 150 °C (dec.) | N#Cc1cnc2sc(CCc3ccccc3)cc2c1Nc1ccc2[nH]ccc2c1 [Compound 316, 4-(1H-Indol-5-ylamino)-2-(2-phenylethyl)thieno[2,3-b]pyridine-5-carbonitrile] |
| 125 nM | 198 to 200 °C | CN(C)Cc1cccc(-c2cc3c(Nc4ccc5[nH]ccc5c4)c(C#N)cnc3s2)n1 [Compound 443, 2-{6-[(dimethylamino)methyl]pyridin-2-yl}-4-(1H-indol-5-ylamino)thieno[2,3-b]pyridine-5-carbonitrile] |
| 67 nM | 255 °C | Cc1c(Nc2c(C#N)cnc3sccc23)ccc2[nH]ccc12 [Compound 480, 4-[(4-methyl-1H-indol-5-yl)amino]thieno[2,3-b]pyridine-5-carbonitrile] |
| 395 nM | 228 °C | N#Cc1cnc2sc(Cl)cc2c1Nc1ccc2[nH]ccc2c1 [Compound 495, 2-chloro-4-(1H-indol-5-ylamino)thieno[2,3-b]pyridine-5-carbonitrile] |
